From ChEMBL document CHEMBL1157906, “Imidazoacridin-6-ones as novel inhibitors of the quinone oxidoreductase NQO2” (Bioorg Med Chem Lett, 2010)

Legend:
HCT-116 = experiment: Toxicity in human HCT116 cells after 96 hrs by MTT assay; type: functional
Nucleic Acid = experiment: Binding affinity to calf thymus DNA assessed as change in melting temperature at 10 uM relative to control; type: nucleic-acid assay; conditions: Bos taurus
[1] = target: T1, Ribosyldihydronicotinamide dehydrogenase [quinone] (Homo sapiens, UniProt P16083); experiment: Inhibition of human recombinant NQO2 assessed as reduction of DCPIP by spectrophotometry
T1 sequence (P16083 whole entry): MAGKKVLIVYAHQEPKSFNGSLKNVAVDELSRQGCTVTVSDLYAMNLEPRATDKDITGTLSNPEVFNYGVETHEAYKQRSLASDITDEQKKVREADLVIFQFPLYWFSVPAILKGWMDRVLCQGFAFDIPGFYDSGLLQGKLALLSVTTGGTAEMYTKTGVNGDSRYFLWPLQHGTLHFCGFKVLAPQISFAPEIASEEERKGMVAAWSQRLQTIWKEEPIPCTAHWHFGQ

Row | ΔTm (Nucleic Acid) | IC50 [1] | SMILES | Activity (HCT-116)
1 | 5.1 °C | 693 nM | CCc1nc2ccc(NCCN(C)C)c3c(=O)c4ccccc4n1c23 | 0.47 µM
2 | 8 °C | 597 nM | CCN(CC)CCCNc1ccc2ncn3c4ccc(O)cc4c(=O)c1c23 | 0.82 µM
3 | 8.6 °C | 16 nM | CCN(CC)CCNc1ccc2nc(C)n3c4ccc(O)cc4c(=O)c1c23 | 3 µM
4 | 1.8 °C | 17 nM | CCN(CC)CCNc1ccc2ncn3c4c(OC)ccc(OC)c4c(=O)c1c23 | 1.67 µM
5 | 9.1 °C | 50 nM | Cc1nc2ccc(NCCN(C)C)c3c(=O)c4cc(O)ccc4n1c23 | 0.65 µM
6 | 8.6 °C | 9 nM | CCN(CC)CCNc1ccc2nc(C)n3c4ccc(OC)cc4c(=O)c1c23 | 3 µM
7 | 5.6 °C | 830 nM | CN(C)CCNc1ccc2ncn3c4ccccc4c(=O)c1c23 | 0.57 µM
8 | 6.4 °C | 427 nM | CCN(CC)CCNc1ccc2ncn3c4ccccc4c(=O)c1c23 | 1 µM
9 | 7.1 °C | 323 nM | Cc1nc2ccc(NCCN(C)C)c3c(=O)c4ccccc4n1c23 | 0.46 µM
10 | 5 °C | 953 nM | CCN(CC)CCNc1ccc2ncn3c4cc(O)ccc4c(=O)c1c23 | 2.2 µM
11 | 5.2 °C | 172 nM | CN(C)CCCNc1ccc2ncn3c4ccccc4c(=O)c1c23 | 0.86 µM
12 | 14.5 °C | – | COc1cccc2c1C(=O)c1c(O)c3c(c(O)c1C2=O)C[C@@](O)(C(=O)CO)C[C@@H]3O[C@H]1C[C@H](N)[C@H](O)[C@H](C)O1 | –
13 | 1 °C | 6 nM | CCN(CC)CCNc1ccc2ncn3c4cc(OC)c(OC)c(O)c4c(=O)c1c23 | 0.95 µM
14 | 4.5 °C | 1000 nM | CCN(CC)CCNc1ccc2ncn3c4ccc(OC)cc4c(=O)c1c23 | 2.9 µM
15 | 5 °C | 99 nM | CCN(CC)CCNc1ccc2ncn3c4c(OC)cccc4c(=O)c1c23 | 1.7 µM
16 | 5.1 °C | 296 nM | CN(C)CCNc1ccc2ncn3c4ccc(O)cc4c(=O)c1c23 | 1 µM
17 | 3.1 °C | 31 nM | CCN(CC)CCNc1ccc2ncn3c4c(OC)ccc(O)c4c(=O)c1c23 | 0.54 µM

Row | SMILES | ΔTm (Nucleic Acid) | IC50 [1] | Activity (HCT-116)
18 | CCN(CC)CCNc1ccc2ncn3c4ccc(O)cc4c(=O)c1c23 [C-1311] | 4.5 °C | 148 nM | 0.77 µM
